Legend:
[1] = test system: Plasmodium falciparum D6 clone (Sierra Leon, chloroquine-sensitive); assay: In vitro antimalarial assay, chloroquine-sensitive D6 clone; format: cell-based; settings: D6 clone; for IC50: converted with molecular weight, read-out: P. falciparum D6 IC50; for X more potent than chloroquine: molar IC50 ratio versus chloroquine
Experimental: (§1) The compounds were assayed for in vitro antimalarial activity against the W2 clone and D6 clone of the pathogenic Plasmodium falciparum. The strains of P. falciparum were obtained from the Division of Experimental Therapeutics, Walter Reed Army Institute of Research, Washington D.C. Strains of Sierra Leon D6 and Indochina W2 are chloroquine-sensitive and chloroquine-resistant, respectively. The parasite was grown in type A human RBCs and, two strains subcultured daily with fresh medium and blood cells. On the day of the assay, a suspension of infected blood cells (2% parasitemia and 2% hematocrit) was prepared using type A human red blood cells. Assays were performed by standard 96-well flat-bottomed microplate methods and done in duplicate at different concentrations. IC50 values were obtained from the dose curves. Artemisinin and chloroquine were included in each assay as the drug controls, and DMSO was used as vehicle control. The whole protocol was developed based on the published method of Makler. The cytotoxicity assays were also performed in parallel against the Vero cells, and the selectivity index was measured. A selectivity index of >9 was considered to indicate a lead for further development of antimalarial drug.

[2] = test system: Plasmodium falciparum W2 clone (Indochina, chloroquine-resistant); assay: In vitro antimalarial assay, chloroquine-resistant W2 clone; format: cell-based; settings: W2 clone; for IC50: converted with molecular weight, read-out: P. falciparum W2 IC50; for X more potent than chloroquine: molar IC50 ratio versus chloroquine
Experimental: as §1

[3] = test system: S. mansoni newly transformed schistosomula (NTS); assay: In vitro testing on Schistosoma mansoni newly transformed schistosomula (NTS), viability score; format: cell-based; settings: 72 h
Experimental: Assays were prepared according to the laboratory SOP for the lab of Dr. Jennifer Keiser (Swiss Tropical and Public Health Institute, Basel). Harvested S. mansoni cercariae (Liberian strain) obtained from infected Biomphalaria glabrata snails were mechanically transformed into newly transformed schistosomula (NTS) following standard procedures. Briefly, snails were placed under light in the morning to stimulate cercarial shedding. The cercarial suspension was collected, cooled for 30 minutes, and then vigorously pipetted (30×) and vortexed (3 minutes). The suspension was then placed in the incubator (37° C. and 5% CO2) for 30 minutes, and the vortexing and pipetting steps were repeated. The transformation was complete at this point, and the tails were separated from the heads by rinsing three times with cold HBSS. NTS were then incubated overnight in culture medium overnight and used the next day.
The original stock compounds (which were not already dissolved) were dissolved in dimethyl sulfoxide (DMSO) to a concentration of 10 mM. 100 NTS were placed in each well of a 96-well plate with culture medium, and the test compound for a final well volume of 250 μl. […] NTS incubated with no more than 1% DMSO served as control. NTS were kept in an incubator at 37° C. and 5% CO2 for up to 72 hours. After 72 hours, the condition of the NTS was microscopically evaluated using a scale from 3 (normal activity and no tegument alteration) to 0 (dead, completely granulated).

[4] = test system: Cryptococcus neoformans ATCC 90113; assay: Antimicrobial microdilution assay against Cryptococcus neoformans (modified CLSI/NCCLS, optical density); format: cell-based; settings: for X more potent than Amphotericin B: C. neoformans, ratio of molar IC50 to Amphotericin B; for C. neoformans IC50 / IC50: in vitro, C. neoformans ATCC 90113; for IC50: read-out: C. neoformans IC50 (mol/L)
Method in brief: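 Fungicidal endpoint taken by subculturing 5 μL from each clear well onto agar, MFC being the lowest concentration with no regrowth. Duplicate wells of serially diluted compound (20% DMSO/saline) in RPMI pH 6.0, read at 630 nm pre- and post-incubation, under modified CLSI methods. IC50 means 50% growth inhibition against controls.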

[5] = test system: L. donovani promastigotes; assay: Antileishmanial Alamar Blue assay on promastigotes; format: cell-based, Leishmania donovani; settings: for X more potent than Pentamidine: L. donovani, ratio of molar IC50 to Pentamidine; for L. donovani IC50 / IC50: promastigotes, 48 hours, Alamar Blue; for IC50: read-out: L. donavani IC50
Method in brief: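 Alamar Blue fluorescence (544/590 nm) quantified growth after 48 hours at 26° C of compound-treated promastigotes. Parasites were seeded at 5×10^5/mL in RPMI 1640 plus 10% FCS; drug range 50-3.1 μg/mL, and IC50 derived by plotting percent growth against test concentration.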

[6] = test system: Staphylococcus aureus ATCC 29213; assay: Antibacterial broth dilution assay against S. aureus (modified CLSI); format: cell-based
Method in brief: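 Growth read by optical density at 530 nm, duplicate wells, 1% final DMSO. Staphylococcus spp.: Mueller-Hinton pH 7.3, 5.0×10^5 CFU/ml, 35 °C for 16-20 h; Candida spp.: RPMI/dextrose/glutamine/MOPS pH 6.0, 1.5×10^3 CFU/ml, 35 °C for 46-50 h. Reported values are 50% inhibition versus controls, no-growth MIC, and killing MFC/MBC.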

Compound	P. falciparum D6 IC50 [1] [µg/mL]	IC50 [1] [nM]	X more potent than chloroquine [1]	P. falciparum W2 IC50 [2] [µg/mL]	IC50 [2] [nM]	X more potent than chloroquine [2]	Effect at 72 h (%) ([3]; NTS S. mansoni, 33 μM)	X more potent than Amphotericin B [4]	C. neoformans IC50 [4] [µg/mL]	IC50 [4] [nM]	X more potent than Pentamidine [5]	L. donovani IC50 [5] [µg/mL]	IC50 [5] [nM]	Effect at 72 h (%) ([3]; NTS S. mansoni at 10 μM)	S. aureus IC50 ([6]; in vitro) [µg/mL]	IC50 ([6]; in vitro, converted with molecular weight) [nM]	X more potent than ciprofloxacen ([6]; molar IC50 ratio versus ciprofloxacen)
CC(=O)[O-].F[P-](F)(F)(F)(F)F.[Cu+2].c1ccc(CN2CCN3CCN(CC2)CCN(Cc2ccccc2)CC3)cc1 [RM58]	0.0947	147	0.25	0.2015	312	2.18	5.41	–	–	–	–	–	–	–	–	–	–
[Mn(Bn1Me1-CB-Cyclam)Cl2] [NS11]	0.6142	1350	0.03	0.5300	1160	0.58	5.41	0.02	5.038	11000	–	–	–	–	–	–	–
[Cl-].[Cl-].[Fe+2].c1ccc(CN2CCCN3CCN(CCCN(Cc4ccccc4)CC3)CC2)cc1 [NS08, Fe(Bn2Bcyclam)Cl2]	0.1726	324	0.11	0.2271	426	1.59	18.02	–	–	–	1.66	1.71	3210	51.72	–	–	–
c1ccc(CN2CCCN3CCN(CCCN(Cc4ccccc4)CC3)CC2)cc1 [JGL45, Bn2Bcyclam]	1.0894	2680	0.01	0.1772	436	1.56	81.08	–	–	–	0.55	3.94	9690	44.83	–	–	–
CC(=O)[O-].F[P-](F)(F)(F)(F)F.[Zn+2].c1ccc(CN2CCCN3CCN(CCCN(Cc4ccccc4)CC3)CC2)cc1 [RM41, [Zn(Bn2Bcyclam)(OAc)]PF6]	0.2315	–	0.11	0.4010	–	1.14	100.00	–	–	–	0.38	9.51	–	17.24	–	–	–
CC(=O)[O-].CN1CCCN2CCN(CCCN(Cc3ccccc3)CC2)CC1.F[P-](F)(F)(F)(F)F.[Cu+2] [RM56A, [Cu(Bn1Me1Bcyclam)(OAc)]PF6]	0.7145	1200	0.03	0.6747	1130	0.60	18.02	–	–	–	0.10	33.32	55700	–	–	–	–
c1ccc(CN2CCN3CCN(CC2)CCN(Cc2ccccc2)CC3)cc1 [ANC14, Bn2Bcyclen]	0.5110	1350	0.03	0.7602	2010	0.34	43.24	–	–	–	0.53	3.80	10000	–	–	–	–
CC(=O)[O-].CC(=O)[O-].CN1CCCN2CCN(CCCN(Cc3ccc(CN4CCCN5CCN(C)CCCN(CC5)CC4)cc3)CC2)CC1.F[P-](F)(F)(F)(F)F.F[P-](F)(F)(F)(F)F.[Ni+2].[Ni+2] [KS33, [Ni2(p-CB-cyclams)(OAc)2](PF6)2]	–	–	–	–	–	–	0.00	0.26	1.020	920	–	–	–	–	8.490	7660	0.04
